15 compounds from PubChem BioAssay AID248 (DTP/NCI, 2004) can be followed below.

The structures appear in SMILES notation. “And” between values parts separate entries of the source, which are not always exact repeats. Equal entries are not always repeated. Inconclusive results and toxic doses are left out.

This test concerns L1210 leukemia ip in BDF1 mice, survival T/C. The experiment in a line: NCI In Vivo Anticancer Drug Screen. Data for tumor model L1210 Leukemia (intraperitoneal) in B6D2F1 (BDF1) mice. The following applies: endpoint: mean survival time, higher = longer survival. In a few lines:
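Ratio derived from survival: compound-dosed mice over vehicle-dosed mice, all bearing a transplantable tumor.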

Setting [1] is: dose: 100.0 mg/kg/injection, schedule: Q04DX002 (ip), vehicle: saline with Tween-80.
Setting [2] is: dose: 200.0 mg/kg/injection, schedule: Q04DX002 (ip), vehicle: saline with Tween-80.
The mark [3] stands for this setting: dose: 400.0 mg/kg/injection, schedule: Q04DX002 (ip), vehicle: saline with Tween-80.
Setting [4] is: dose: 100.0 mg/kg/injection, schedule: Q01DX001 (ip), vehicle: other.
Setting [5] is: dose: 200.0 mg/kg/injection, schedule: Q01DX001 (ip), vehicle: other.
The mark [6] stands for this setting: dose: 100.0 mg/kg/injection, schedule: Q01DX001 (ip), vehicle: Klucel (hydroxypropylcellulose) (HPC).
The mark [7] stands for this setting: dose: 200.0 mg/kg/injection, schedule: Q01DX001 (ip), vehicle: Klucel (hydroxypropylcellulose) (HPC).
Where [8] appears, read: dose: 100.0 mg/kg/injection, schedule: Q01DX009 (ip), vehicle: Klucel (hydroxypropylcellulose) (HPC).
Setting [9] is: dose: 200.0 mg/kg/injection, schedule: Q01DX009 (ip), vehicle: Klucel (hydroxypropylcellulose) (HPC).
[10] abbreviates: dose: 25.0 mg/kg/injection, schedule: Q04DX003 (ip), vehicle: Klucel (hydroxypropylcellulose) (HPC).
Where [11] appears, read: dose: 50.0 mg/kg/injection, schedule: Q04DX003 (ip), vehicle: Klucel (hydroxypropylcellulose) (HPC).
Where [12] appears, read: dose: 100.0 mg/kg/injection, schedule: Q04DX003 (ip), vehicle: Klucel (hydroxypropylcellulose) (HPC).

As for `CN(C)N=Nc1cccnc1`, the T/C is 97 % of control (dose: 8.0 mg/kg/injection, schedule: Q01DX009 (ip), vehicle: saline); 106 % of control (dose: 9.5 mg/kg/injection, schedule: Q01DX001 (ip), vehicle: saline); 103 % of control (dose: 14.0 mg/kg/injection, schedule: Q01DX009 (ip), vehicle: saline); 106 % of control (dose: 19.0 mg/kg/injection, schedule: Q01DX001 (ip), vehicle: saline); 108 % of control (dose: 23.0 mg/kg/injection, schedule: Q01DX009 (ip), vehicle: saline); 117 % of control (dose: 38.0 mg/kg/injection, schedule: Q01DX001 (ip), vehicle: saline). Further, the T/C reads like this: (dose: 57.0 mg/kg/injection, schedule: Q01DX009 (ip), vehicle: saline) 150 % of control; (dose: 86.0 mg/kg/injection, schedule: Q01DX009 (ip), vehicle: saline) 162 % of control.
`CCCCSP(=S)(SCCCC)c1ccc(Cl)cc1`: the T/C by setting is: under setting [1], 90 % of control; under setting [2], 93 % of control; under setting [3], 97 % of control.
As to `Cc1ccc(N=Nc2c(N)ccc3ccccc23)cc1`, the T/C under setting [4] was 100 % of control and the T/C under setting [5] is 100 % of control.
Turning to `Cc1ccc(-n2c(O)c(N=Nc3ccc(Cl)cc3)c(=O)n(-c3ccc(Br)cc3)c2=S)cc1`, the T/C (dose: 50.0 mg/kg/injection, schedule: Q01DX001 (ip), vehicle: Klucel (hydroxypropylcellulose) (HPC)) is 103 % of control; the T/C under setting [6] is 105 % of control; the T/C under setting [7] was 108 % of control.
Turning to `COc1ccc(NC(=O)Nc2cccc(C(F)(F)F)c2)c(OC)c1`, the T/C was 102 % of control (dose: 100.0 mg/kg/injection, schedule: Q01DX009 (ip), vehicle: gum acacia); 98 % of control (dose: 200.0 mg/kg/injection, schedule: Q01DX009 (ip), vehicle: gum acacia); 101 % of control (dose: 400.0 mg/kg/injection, schedule: Q01DX009 (ip), vehicle: gum acacia).
For `O=C(O)C1CSC(c2ccccc2)N1` (stereo not drawn), the T/C under setting [4] was 105 % of control; the T/C (dose: 176.0 mg/kg/injection, schedule: Q01DX001 (ip), vehicle: other) was 109 % of control and 91 % of control; the T/C under setting [5] is 102 % of control; the T/C (dose: 267.0 mg/kg/injection, schedule: Q01DX001 (ip), vehicle: other) was 96 % of control and 90 % of control; the T/C (dose: 600.0 mg/kg/injection, schedule: Q01DX001 (ip), vehicle: other) is 101 % of control and 90 % of control.
As to `Cc1nc2c(O)cccc2cc1CO`, the T/C under setting [8] was 95 % of control and the T/C under setting [9] is 93 % of control.
As for `CCCCCCCCCCCCCCCCCC[n+]1cccc(C(=O)N2CCOCC2)c1`, the T/C is, setting by setting: (dose: 2.0 mg/kg/injection, schedule: Q01DX009 (ip), vehicle: Klucel (hydroxypropylcellulose) (HPC)) 97 % of control; (dose: 4.0 mg/kg/injection, schedule: Q01DX009 (ip), vehicle: Klucel (hydroxypropylcellulose) (HPC)) 110 % of control; (dose: 8.0 mg/kg/injection, schedule: Q01DX009 (ip), vehicle: Klucel (hydroxypropylcellulose) (HPC)) 98 % of control; (dose: 12.5 mg/kg/injection, schedule: Q04DX003 (ip), vehicle: Klucel (hydroxypropylcellulose) (HPC)) 88 % of control; (dose: 16.0 mg/kg/injection, schedule: Q01DX009 (ip), vehicle: Klucel (hydroxypropylcellulose) (HPC)) 104 % of control; under setting [10], 96 % of control. For the same compound, the T/C reads like this: (dose: 32.0 mg/kg/injection, schedule: Q01DX009 (ip), vehicle: Klucel (hydroxypropylcellulose) (HPC)) 90 % of control; under setting [11], 93 % of control; under setting [12], 92 % of control.
As to `Oc1ccccc1OB(Oc1ccccc1O)N(CCCl)CCCl`, the T/C under setting [4] was 111 % of control.
As for `c1ccc(C[Si](Cc2ccccc2)Cc2ccccc2)cc1`, the T/C was 105 % of control (dose: 100.0 mg/kg/injection, schedule: Q01DX001 (ip), vehicle: saline); 88 % of control (dose: 100.0 mg/kg/injection, schedule: Q01DX009 (ip), vehicle: saline); 90 % of control (dose: 200.0 mg/kg/injection, schedule: Q01DX001 (ip), vehicle: saline); 88 % of control (dose: 200.0 mg/kg/injection, schedule: Q01DX009 (ip), vehicle: saline); 104 % of control (dose: 400.0 mg/kg/injection, schedule: Q01DX001 (ip), vehicle: saline); 90 % of control (dose: 400.0 mg/kg/injection, schedule: Q01DX009 (ip), vehicle: saline).
`CCOc1nc(N)nc2c1-c1ccc(OC)cc1CC2`: the T/C under setting [1] was 91 % of control, the T/C under setting [2] was 102 % of control and the T/C under setting [3] was 87 % of control.
Consider `CCOC(=O)c1[nH]c(COC(C)=O)c(CCC(=O)O)c1C`, for which the T/C is, setting by setting: under setting [10], 101 % of control; under setting [11], 95 % of control; under setting [6], 101 % of control; under setting [12], 98 % of control; under setting [7], 93 % of control; (dose: 400.0 mg/kg/injection, schedule: Q01DX001 (ip), vehicle: Klucel (hydroxypropylcellulose) (HPC)) 88 % of control.
As to `Nc1ccc(S(=O)(=O)O)cc1[N+](=O)[O-]`, the T/C by setting is: (dose: 100.0 mg/kg/injection, schedule: Q04DX003 (ip), vehicle: saline) 93 % of control; (dose: 200.0 mg/kg/injection, schedule: Q04DX003 (ip), vehicle: saline) 95 % of control; (dose: 400.0 mg/kg/injection, schedule: Q04DX003 (ip), vehicle: saline) 96 % of control.
Take `Cc1cccc(C)c1NC(=O)Oc1ccc2ccccc2c1`: the T/C is 91 % of control under setting [8]; 104 % of control under setting [12]; 94 % of control under setting [9]; 104 % of control (dose: 200.0 mg/kg/injection, schedule: Q04DX003 (ip), vehicle: Klucel (hydroxypropylcellulose) (HPC)); 101 % of control (dose: 400.0 mg/kg/injection, schedule: Q01DX009 (ip), vehicle: Klucel (hydroxypropylcellulose) (HPC)); 105 % of control (dose: 400.0 mg/kg/injection, schedule: Q04DX003 (ip), vehicle: Klucel (hydroxypropylcellulose) (HPC)).
In the case of `CCOC(=O)c1cnc(SCc2ccccc2Cl)nc1N1CC1`, the T/C reads like this: (dose: 12.5 mg/kg/injection, schedule: Q01DX001 (ip), vehicle: saline) 100 % of control; (dose: 12.5 mg/kg/injection, schedule: Q04DX003 (ip), vehicle: saline) 100 % of control; (dose: 25.0 mg/kg/injection, schedule: Q01DX001 (ip), vehicle: saline) 98 % of control; (dose: 25.0 mg/kg/injection, schedule: Q04DX003 (ip), vehicle: saline) 101 % of control; (dose: 28.05 mg/kg/injection, schedule: Q01DX009 (ip), vehicle: acetone) 92 % of control; (dose: 42.5 mg/kg/injection, schedule: Q01DX009 (ip), vehicle: acetone) 112 % of control. Besides, the T/C was 98 % of control (dose: 50.0 mg/kg/injection, schedule: Q01DX001 (ip), vehicle: saline); 98 % of control and 100 % of control and 113 % of control (dose: 50.0 mg/kg/injection, schedule: Q04DX003 (ip), vehicle: saline); 117 % of control (dose: 63.75 mg/kg/injection, schedule: Q01DX009 (ip), vehicle: acetone); 102 % of control and 117 % of control (dose: 75.0 mg/kg/injection, schedule: Q04DX003 (ip), vehicle: saline); 104 % of control and 120 % of control (dose: 110.0 mg/kg/injection, schedule: Q04DX003 (ip), vehicle: saline); 122 % of control (dose: 115.0 mg/kg/injection, schedule: Q04DX003 (ip), vehicle: saline). In addition, where the note is “dose: 170.0 mg/kg/injection, schedule: Q04DX003 (ip), vehicle: saline”, the T/C was 115 % of control.
